Blank lines part the entries; values can stand above or below the compound they belong to.
System: 388556-164-R-J1-PDC complex spheroid viability
Test: Anticancer human tumor 388556-164-R-J1-PDC patient-derived colon adenocarcinoma cell line growth inhibition [RAS]
Details: for IC50: curve of first compound; for viability, T/C: stronger effect = lower value
How it was run: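 Agents were tested in combination matrices in half-log decrements from a top concentration at or near clinical Cmax (10 microM if undetermined). Targets were multi-cell spheroids of tumour lines plus HUVEC and MSC stromal cells.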
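Note: spheroids exposed to compound for 7 days before readout.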
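Throughout, for viability, T/C: 100% = DMSO vehicle control luminescence.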

IC50 (second compound 0.0316 µM): > 1000 nM
IC50 (second compound 0.1 µM): > 1000 nM
IC50 (second compound 0.316 µM): 765 nM
IC50 (second compound 1 µM): 401 nM
IC50 (second compound 3.16 µM): 287 nM
IC50 (second compound 10 µM): 125 nM
SMILES: C=CC(=O)Nc1cc(Nc2nccc(-c3cn(C)c4ccccc34)n2)c(OC)cc1N(C)CCN(C)C + C#Cc1c(F)ccc2cc(O)cc(-c3ncc4c(N5CC6CCC(C5)N6)nc(OCC56CCCN5CC(F)C6)nc4c3F)c12
viability, T/C (second compound 0.0316 µM, first compound 0.00316 µM): 114%
viability, T/C (second compound 0.0316 µM, first compound 0.01 µM): 98.3%
viability, T/C (second compound 0.0316 µM, first compound 0.0316 µM): 111%
viability, T/C (second compound 0.0316 µM, first compound 0.1 µM): 92.2%
viability, T/C (second compound 0.0316 µM, first compound 0.316 µM): 78.9%
viability, T/C (second compound 0.0316 µM, first compound 1 µM): 57.1%
viability, T/C (second compound 0.1 µM, first compound 0.00316 µM): 110%
viability, T/C (second compound 0.1 µM, first compound 0.01 µM): 98%
viability, T/C (second compound 0.1 µM, first compound 0.0316 µM): 105%
viability, T/C (second compound 0.1 µM, first compound 0.1 µM): 94.5%
viability, T/C (second compound 0.1 µM, first compound 0.316 µM): 74.5%
viability, T/C (second compound 0.1 µM, first compound 1 µM): 57.8%
viability, T/C (second compound 0.316 µM, first compound 0.00316 µM): 98.4%
viability, T/C (second compound 0.316 µM, first compound 0.01 µM): 103%
viability, T/C (second compound 0.316 µM, first compound 0.0316 µM): 80.7%
viability, T/C (second compound 0.316 µM, first compound 0.1 µM): 92%
viability, T/C (second compound 0.316 µM, first compound 0.316 µM): 72.8%
viability, T/C (second compound 0.316 µM, first compound 1 µM): 42.5%
viability, T/C (second compound 1 µM, first compound 0.00316 µM): 91.2%
viability, T/C (second compound 1 µM, first compound 0.01 µM): 99.6%
viability, T/C (second compound 1 µM, first compound 0.0316 µM): 60.5%
viability, T/C (second compound 1 µM, first compound 0.1 µM): 73.7%
viability, T/C (second compound 1 µM, first compound 0.316 µM): 61.1%
viability, T/C (second compound 1 µM, first compound 1 µM): 29.8%
viability, T/C (second compound 3.16 µM, first compound 0.00316 µM): 90.2%
viability, T/C (second compound 3.16 µM, first compound 0.01 µM): 70.8%
viability, T/C (second compound 3.16 µM, first compound 0.0316 µM): 87.3%
viability, T/C (second compound 3.16 µM, first compound 0.1 µM): 69%
viability, T/C (second compound 3.16 µM, first compound 0.316 µM): 48.5%
viability, T/C (second compound 3.16 µM, first compound 1 µM): 19.8%
viability, T/C (second compound 10 µM, first compound 0.00316 µM): 67.4%
viability, T/C (second compound 10 µM, first compound 0.01 µM): 81.5%
viability, T/C (second compound 10 µM, first compound 0.0316 µM): 64.1%
viability, T/C (second compound 10 µM, first compound 0.1 µM): 56.2%
viability, T/C (second compound 10 µM, first compound 0.316 µM): 30.8%
viability, T/C (second compound 10 µM, first compound 1 µM): 24.6%

IC50 (second compound 0.000949 µM): > 1000 nM
IC50 (second compound 0.003 µM): > 1000 nM
IC50 (second compound 0.00949 µM): > 1000 nM
IC50 (second compound 0.03 µM): 974 nM
IC50 (second compound 0.0949 µM): 864 nM
IC50 (second compound 0.3 µM): 849 nM
SMILES: C=CC(=O)Nc1cc(Nc2nccc(-c3cn(C)c4ccccc34)n2)c(OC)cc1N(C)CCN(C)C + CCn1c(-c2cccnc2C(C)OC)c2c3cc(ccc31)N1CCOC(CC(NC(=O)C(C(C)C)N(C)C(=O)C3(F)CCN(C(=O)C#CC(C)(C)N(C)C)CC3)C(=O)N3CCCC(N3)C(=O)OCC(C)(C)C2)C1
viability, T/C (second compound 0.000949 µM, first compound 0.00316 µM): 98.7%
viability, T/C (second compound 0.000949 µM, first compound 0.01 µM): 93.3%
viability, T/C (second compound 0.000949 µM, first compound 0.0316 µM): 91.5%
viability, T/C (second compound 0.000949 µM, first compound 0.1 µM): 88.5%
viability, T/C (second compound 0.000949 µM, first compound 0.316 µM): 75.2%
viability, T/C (second compound 0.000949 µM, first compound 1 µM): 53.4%
viability, T/C (second compound 0.003 µM, first compound 0.00316 µM): 108%
viability, T/C (second compound 0.003 µM, first compound 0.01 µM): 108%
viability, T/C (second compound 0.003 µM, first compound 0.0316 µM): 101%
viability, T/C (second compound 0.003 µM, first compound 0.1 µM): 83.6%
viability, T/C (second compound 0.003 µM, first compound 0.316 µM): 73.8%
viability, T/C (second compound 0.003 µM, first compound 1 µM): 53.4%
viability, T/C (second compound 0.00949 µM, first compound 0.00316 µM): 105%
viability, T/C (second compound 0.00949 µM, first compound 0.01 µM): 107%
viability, T/C (second compound 0.00949 µM, first compound 0.0316 µM): 90.9%
viability, T/C (second compound 0.00949 µM, first compound 0.1 µM): 80.2%
viability, T/C (second compound 0.00949 µM, first compound 0.316 µM): 82.3%
viability, T/C (second compound 0.00949 µM, first compound 1 µM): 54.1%
viability, T/C (second compound 0.03 µM, first compound 0.00316 µM): 107%
viability, T/C (second compound 0.03 µM, first compound 0.01 µM): 96.2%
viability, T/C (second compound 0.03 µM, first compound 0.0316 µM): 101%
viability, T/C (second compound 0.03 µM, first compound 0.1 µM): 88.1%
viability, T/C (second compound 0.03 µM, first compound 0.316 µM): 70.6%
viability, T/C (second compound 0.03 µM, first compound 1 µM): 49.5%
viability, T/C (second compound 0.0949 µM, first compound 0.00316 µM): 105%
viability, T/C (second compound 0.0949 µM, first compound 0.01 µM): 108%
viability, T/C (second compound 0.0949 µM, first compound 0.0316 µM): 95.9%
viability, T/C (second compound 0.0949 µM, first compound 0.1 µM): 93.9%
viability, T/C (second compound 0.0949 µM, first compound 0.316 µM): 75%
viability, T/C (second compound 0.0949 µM, first compound 1 µM): 46%
viability, T/C (second compound 0.3 µM, first compound 0.00316 µM): 98.5%
viability, T/C (second compound 0.3 µM, first compound 0.01 µM): 89.3%
viability, T/C (second compound 0.3 µM, first compound 0.0316 µM): 89.5%
viability, T/C (second compound 0.3 µM, first compound 0.1 µM): 81.5%
viability, T/C (second compound 0.3 µM, first compound 0.316 µM): 69.4%
viability, T/C (second compound 0.3 µM, first compound 1 µM): 46.3%

Source: PubChem BioAssay AID2060907 (Molecular Pharmacology Branch, DTP, NCI, 2025)
